Values of other authors, collected in patent US8540972B2, “Sunscreen product comprising hydroxyapatite as physical filter” (Kalichem Italia S.R.L., priority 2009, dated 2013).

Test system: HeLa cells

fate of HeLa cells after UV irradiation in the presence of the substance: die
Substance: titanium dioxide [TiO2]
